# Source: the supplement of paper PMC10331698
# ± gives the standard deviation of the averaged measurements.
# Tests used:
# Assay in all cases: LOEC (log10 uM (lowest observed effect concentration))
# Perfluorooctanoic acid = compound: O=C(O)C(F)(F)C(F)(F)C(F)(F)C(F)(F)C(F)(F)C(F)(F)C(F)(F)F [Perfluorooctanoic acid]
# Protocol: (§1)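 BioMAP Diversity Plus panel in human primary cell co-cultures, 4 concentrations in duplicate blinded samples. Responses are log10 fold change versus DMSO control, processed with tcpl v2.1.0. A hit is called when responses at any concentration exceed the cutoff (the larger of 3*bmad or log10(1.2)); the lowest observed effect concentration (modl_ga, log10 uM) is reported for hits.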
# [1] = compound: O=P(O)(O)CCC(F)(F)C(F)(F)C(F)(F)C(F)(F)C(F)(F)C(F)(F)F [2-(Perfluorohexyl)ethylphosphonic acid]
# Protocol: as §1
# [2] = compound: C=CC(=O)OCC(F)(F)C(F)(F)C(F)(F)C(F)(F)C(F)(F)C(F)(F)C(F)(F)C(F)F [1H,1H,9H-Perfluorononyl acrylate]
# Protocol: as §1
# [3] = compound: C=CC(=O)OCC(F)(F)C(F)(F)C(F)(F)C(F)(F)COC(=O)C=C [1H,1H,6H,6H-Perfluorohexane-1,6-diol diacrylate]
# Protocol: as §1
# Methotrexate = compound: CN(Cc1cnc2nc(N)nc(N)c2n1)c1ccc(C(=O)N[C@@H](CCC(=O)O)C(=O)O)cc1 [Methotrexate]
# Protocol: as §1
# [4] = compound: FC(F)(F)C(F)(F)C(F)(F)C(F)(F)CCI [1H,1H,2H,2H-Perfluorohexyl iodide]
# Protocol: as §1
# [5] = compound: FC(F)(I)C(F)(F)C(F)(F)C(F)(F)C(F)(F)C(F)(F)I [1,6-Diiodoperfluorohexane]
# Protocol: as §1
# [6] = compound: O=C(CC(=O)C(F)(F)C(F)(F)C(F)(F)F)c1cccs1 [(Perfluorobutyryl)-2-thenoylmethane]
# Protocol: as §1
# Perfluoropinacol = compound: OC(C(F)(F)F)(C(F)(F)F)C(O)(C(F)(F)F)C(F)(F)F [Perfluoropinacol]
# Protocol: as §1
# [7] = compound: OCC(F)(F)C(F)(F)C(F)(F)C(F)(F)C(F)(F)C(F)(F)C(F)(F)C(F)(F)C(F)(F)C(F)(F)C(F)(F)F [11:1 Fluorotelomer alcohol]
# Protocol: as §1
# [8] = compound: OCCC(F)(F)C(F)(F)C(F)(F)C(F)(F)C(F)(F)C(F)(F)C(F)(F)C(F)(F)F [8:2 Fluorotelomer alcohol]
# Protocol: as §1
# [9] = compound: OCCCC(F)(F)C(F)(F)C(F)(F)C(F)(F)C(F)(F)C(F)(F)C(F)(F)C(F)(F)F [3-(Perfluorooctyl)propanol]
# Protocol: as §1
# [10] = compound: OCC(F)(F)C(F)(F)C(F)(F)C(F)(F)C(F)(F)C(F)(F)C(F)(F)C(F)(F)CO [1H,1H,10H,10H-Perfluorodecane-1,10-diol]
# Protocol: as §1
# [11] = compound: O=S(=O)(OCC(F)(F)F)C(F)(F)C(F)(F)C(F)(F)C(F)(F)F [2,2,2-Trifluoroethyl perfluorobutanesulfonate]
# Protocol: as §1
# [12] = compound: C=CC(=O)OCCC(F)(F)C(F)(F)C(F)(F)C(F)(F)C(F)(F)C(F)(F)C(F)(F)C(F)(F)F [8:2 Fluorotelomer acrylate]
# Protocol: as §1
# [13] = compound: Cc1ccc(S(=O)(=O)OCC(F)(F)C(F)(F)C(F)(F)C(F)(F)C(F)(F)C(F)F)cc1 [1H,1H,7H-Perfluoroheptyl 4-methylbenzenesulfonate]
# Protocol: as §1
Test System,LOEC (log10 uM) (Perfluorooctanoic acid),LOEC (log10 uM) [1],LOEC (log10 uM) [2],LOEC (log10 uM) [3],LOEC (log10 uM) (Methotrexate),LOEC (log10 uM) [4],LOEC (log10 uM) [5],LOEC (log10 uM) [6],LOEC (log10 uM) (Perfluoropinacol),LOEC (log10 uM) [7],LOEC (log10 uM) [8],LOEC (log10 uM) [9],LOEC (log10 uM) [10],LOEC (log10 uM) [11],LOEC (log10 uM) [12],LOEC (log10 uM) [13]
hDFCGF Proliferation up,1.3,1.78,–,–,–,–,–,–,–,–,–,–,–,–,–,–
SAg Proliferation down,–,–,1.3,0.845,0.477,1.78,1.3,0.845,1.3,-0.96 ± 0.37,1.3,1.3,–,–,–,–
BT Bcell Proliferation down,–,–,1.78,0.845,0,–,1.54 ± 0.34,1.3,1.54 ± 0.34,-0.96 ± 0.37,1.78,1.3,1.78,–,–,–
hDFCGF ITAC down,–,–,1.54 ± 0.34,0.301,–,1.78,0.845,1.3,0.801 ± 0.71,–,1.3,0.845,1.78,1.78,–,–
KF3CT IL8 down,–,–,–,1.3,–,–,1.07 ± 0.32,–,–,–,–,1.3,1.78,–,1.54 ± 0.34,1.3
BT sIgG down,–,–,–,0.845,0,–,1.78,1.3,0.845,–,1.78,1.78,1.78,–,–,–
KF3CT MMP9 down,–,–,–,1.3,–,–,0.845,0.845,1.78,–,1.07 ± 0.32,1.3,–,–,1.54 ± 0.34,–
